Assay results taken from ChEMBL document CHEMBL1156165, “Novel 8-(furan-2-yl)-3-substituted thiazolo [5,4-e][1,2,4] triazolo[1,5-c] pyrimidine-2(3H)-thione derivatives as potential adenosine A(2A) receptor antagonists” (Bioorg Med Chem, 2010).
Activity calls are given as the source filed them. The rule behind the calls is not given here.

Legend:
Adenosine receptor A1 = biological target: T1, Adenosine receptor A1 (Homo sapiens, UniProt P30542); experiment: biochemical
T1 sequence (P30542 whole entry): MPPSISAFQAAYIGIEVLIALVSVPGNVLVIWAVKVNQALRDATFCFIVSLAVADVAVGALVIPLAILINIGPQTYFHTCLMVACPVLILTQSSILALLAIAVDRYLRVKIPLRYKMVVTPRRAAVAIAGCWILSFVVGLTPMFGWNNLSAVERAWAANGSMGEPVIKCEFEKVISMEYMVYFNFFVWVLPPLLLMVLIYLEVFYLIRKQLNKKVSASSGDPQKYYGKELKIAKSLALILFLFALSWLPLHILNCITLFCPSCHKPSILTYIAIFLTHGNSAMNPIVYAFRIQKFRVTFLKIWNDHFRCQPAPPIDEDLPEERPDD
Description: Displacement of [3H]DPCPX from human adenosine A1 receptor expressed in HEK293 cells after 60 mins by rapid filtration assay

Homo sapiens = species on record: Homo sapiens; experiment: Selectivity ratio of Ki for human adenosine A1 receptor to Ki for human adenosine A2A receptor
Adenosine receptor A2a = Adenosine receptor A2a (Homo sapiens, UniProt P29274); experiment: biochemical
Adenosine receptor A2a, sequence (P29274 whole entry): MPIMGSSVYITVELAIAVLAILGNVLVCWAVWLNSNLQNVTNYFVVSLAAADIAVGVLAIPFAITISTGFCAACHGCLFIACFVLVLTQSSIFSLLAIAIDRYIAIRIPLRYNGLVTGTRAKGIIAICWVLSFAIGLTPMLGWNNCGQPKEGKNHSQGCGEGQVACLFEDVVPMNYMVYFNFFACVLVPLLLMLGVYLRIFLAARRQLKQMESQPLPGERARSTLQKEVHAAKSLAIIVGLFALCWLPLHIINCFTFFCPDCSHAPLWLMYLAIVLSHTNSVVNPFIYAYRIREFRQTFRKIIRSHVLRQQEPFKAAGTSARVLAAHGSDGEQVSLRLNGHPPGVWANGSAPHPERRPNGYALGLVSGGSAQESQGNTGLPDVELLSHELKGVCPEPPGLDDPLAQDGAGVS
Description: Displacement of [3H]ZM241385 from human adenosine A2A receptor expressed in HEK293 cells after 60 mins by rapid filtration assay

Mus musculus [1] = experiment: Inhibition of haloperidol-induced catalepsy in Swiss albino mouse at 5 mg/kg, ip administered 30 mins prior to haloperidol challenge measured after 15 to 120 mins; assay type: functional, organism-based; design: dose 5 mg/kg
Mus musculus [2] = experiment: Inhibition of haloperidol-induced akinesia in Swiss albino mouse at 10 mg/kg, ip administered 30 mins prior to haloperidol challenge measured after 15 to 120 mins; assay type: functional, organism-based; design: dose 10 mg/kg
Mus musculus [3] = experiment: Inhibition of haloperidol-induced akinesia in Swiss albino mouse at 5 mg/kg, ip administered 30 mins prior to haloperidol challenge measured after 15 to 120 mins; assay type: functional, organism-based; design: dose 5 mg/kg
Mus musculus [4] = experiment: Inhibition of haloperidol-induced catalepsy in Swiss albino mouse at 10 mg/kg, ip administered 30 mins prior to haloperidol challenge measured after 15 to 120 mins; assay type: functional, organism-based; design: dose 10 mg/kg
Mus musculus [5] = experiment: Inhibition of haloperidol-induced akinesia in Swiss albino mouse at 20 mg/kg, ip administered 30 mins prior to haloperidol challenge measured after 15 to 120 mins; assay type: functional, organism-based; design: dose 20 mg/kg
Mus musculus [6] = experiment: Inhibition of haloperidol-induced catalepsy in Swiss albino mouse at 20 mg/kg, ip administered 30 mins prior to haloperidol challenge measured after 15 to 120 mins; assay type: functional, organism-based; design: dose 20 mg/kg

Ki (Adenosine receptor A1) | Ratio Ki (Homo sapiens) | Ki (Adenosine receptor A2a) | Compound | inhibition (Mus musculus [1]) | inhibition (Mus musculus [2]) | inhibition (Mus musculus [3]) | inhibition (Mus musculus [4]) | inhibition (Mus musculus [5]) | inhibition (Mus musculus [6])
96 pM | 0.028 | 3560 pM | CCn1c(=S)sc2c1ncn1nc(-c3ccco3)nc21 |  |  |  |  |  | 
2620 pM | 320 | 8.2 pM | S=c1sc2c(ncn3nc(-c4ccco4)nc23)n1-c1cccc(I)c1 |  |  |  |  |  | 
148000 pM | 1290 | 120 pM | CCCCn1c(=S)sc2c1ncn1nc(-c3ccco3)nc21 | Active | Active | Active | Active | Active | Active
30 pM | 0.197 | 152 pM | S=c1sc2c(ncn3nc(-c4ccco4)nc23)n1-c1ccc(Cl)cc1 |  |  |  |  |  | 
190 pM | 5 | 38 pM | S=c1sc2c(ncn3nc(-c4ccco4)nc23)n1-c1cccc(Cl)c1 |  |  |  |  |  | 
6130 pM | 10.8 | 570 pM | S=c1sc2c(ncn3nc(-c4ccco4)nc23)n1-c1ccc(I)cc1 |  |  |  |  |  | 
3210 pM | 1.59 | 2020 pM | Fc1ccc(-n2c(=S)sc3c2ncn2nc(-c4ccco4)nc32)cc1 |  |  |  |  |  | 
48000 pM | 46.6 | 1100 pM | S=c1sc2c(ncn3nc(-c4ccco4)nc23)n1-c1ccccc1 |  |  |  |  |  | 
400 pM | 0.571 | 700 pM | S=c1sc2c(ncn3nc(-c4ccco4)nc23)n1-c1ccccc1I |  |  |  |  |  | 
228000 pM | 636 | 380 pM | CCCn1c(=S)sc2c1ncn1nc(-c3ccco3)nc21 | Active | Active | Active | Active | Active | Active

Compound | Ki (Adenosine receptor A1) | Ratio Ki (Homo sapiens) | Ki (Adenosine receptor A2a) | inhibition (Mus musculus [1]) | inhibition (Mus musculus [2]) | inhibition (Mus musculus [3]) | inhibition (Mus musculus [4]) | inhibition (Mus musculus [5]) | inhibition (Mus musculus [6])
C=CCn1c(=S)sc2c1ncn1nc(-c3ccco3)nc21 | 19000 pM | 1250 | 16 pM | Active | Active | Active | Active | Active | Active
